Here are results for one compound from EPA's ToxValDB 9.5 (doi:10.2903/j.efsa.2006.61r).

SMILES strings stand for the structures. ≈ marks a conversion by molar mass, not a printed value.

One data set has as its system Trichogramma cacoeciae. To be noted: not reported.
A further data set has as its system Tagia sp. To be noted: acute; duration: 14 days; mortality.
The next data set relates to Rattus norvegicus. The note with it: for LD50: acute, oral, mortality.
For the next data set, the system named is Daphnia magna. The note with it: chronic/long-term; duration: 21 days; reproduction.
A further data set deals with Bibionidae. To be noted: chronic/long-term; duration: 28 days; seedling emergence.
In another data set the test system is Apis mellifera. The note with it: acute, mortality.
In a further data set the test system is Pontoscolex corethrurus. The note with it: chronic/long-term.
In another data set the test system is Colinus virginianus. To be noted: for LD50: acute, oral, mortality.
In the next data set the test system is Anas platyrhynchos. To be noted: acute; oral; unspecified; mortality.
For a further data set, the system named is Oncorhynchus mykiss. To be noted: acute; duration: 96 hours; mortality.

Turning to `Cc1cc(C)nc(Nc2ccccc2)n1` [Pyrimethanil], the LEL with Trichogramma cacoeciae (mortality) came out at 1000 g/ha; in the data set with Trichogramma cacoeciae (reproduction), 1000 g/ha; with Encarsia formosa (acute, duration: 6 days, mortality) it was 1000 g/ha; in the data set with Encarsia formosa (not reported, reproduction), 1000 g/ha. Besides, the LC50 with Tagia sp. stood at 626 mg/kg; in the data set on Oncorhynchus mykiss it was 10.6 µg/mL (≈ 53 µM). Further, the LD50 with Rattus norvegicus (F) is 5970 mg/kg; in the data set on Rattus norvegicus (M), 4150 mg/kg; in the data set on Apis mellifera (dermal) it was more than 100 µg/piece; in the data set on Apis mellifera (duration: 48 hours, oral, unspecified), more than 100 µg/piece; with Colinus virginianus (diet), more than 874 mg/kg; in the data set on Colinus virginianus it was more than 2000 mg/kg. Further, the LD50 in the data set with Anas platyrhynchos was more than 2000 mg/kg. Also, the NOAEL (in general, the highest tested level that showed no adverse finding) stood at 17 mg/kg-day in the data set on Rattus norvegicus (chronic, duration: 2 years, clinical chemistry); 18.4 mg/kg-day in the data set on Rattus norvegicus (reproduction developmental, M, body weight); 5.4 mg/kg-day with Rattus norvegicus (subchronic, duration: 90 days, organ weight); 96 mg/kg-day in the data set on Colinus virginianus (reproduction developmental). Besides, the NOEC in the data set on Daphnia magna amounted to 0.94 mg/L; in the data set on Bibionidae, 4 mg/L; with Pontoscolex corethrurus, 4.12 mg/kg.
